The values below come from US9943082B2, “Ternary fungicidal mixtures” (BAYER CROPSCIENCE AG, priority 2012, dated 2018).

This experiment deals with Puccinia triticina. Put plainly: Puccinia triticina test (wheat)/preventive. Format: in vivo. The settings on record: preventive spray, evaluated 8 days after inoculation. How it is done: To produce a suitable preparation of active compound, 1 part by weight of active compound or active compound combination is mixed with the stated amounts of solvent and emulsifier, and the concentrate is diluted with water to the desired concentration.
To test for preventive activity, young plants are sprayed with the preparation of active compound or active compound combination at the stated rate of application.
After the spray coating has been dried, the plants are sprayed with a spore suspension of Puccinia triticina. The plants remain for 48 hours in an incubation cabinet at approximately 20° C. and a relative atmospheric humidity of approximately 100%.
The plants are placed in the greenhouse at a temperature of approximately 20° C. and a relative atmospheric humidity of approximately 80%.
The test is evaluated 8 days after the inoculation. 0% means an efficacy which corresponds to that of the untreated control, while an efficacy of 100% means that no disease is observed.

As for `OC(Cc1ccccc1Cl)(Cn1nc[nH]c1=S)C1(Cl)CC1` (centres unmarked) [2.23 prothioconazole, prothioconazole], the “Efficacy in % found” value (20 ppm a.i.) came to 0%.

`CO/C=C(/C(=O)OC)c1ccccc1Oc1cc(Oc2ccccc2C#N)ncn1` [3.2 azoxystrobin, azoxystrobin]: the “Efficacy in % found” value (10 ppm a.i.) was found to be 78%.

Regarding `COC(=O)N(OC)c1ccccc1COc1ccn(-c2ccc(Cl)cc2)n1` [3.14 pyraclostrobin, pyraclostrobin], for the setting “10 ppm a.i.”, the “Efficacy in % found” value is 22%.

For `CON=C(C(=O)OC)c1ccccc1CON=C(C)c1cccc(C(F)(F)F)c1` [3.15 trifloxystrobin, trifloxystrobin], the “Efficacy in % found” value (10 ppm a.i.) is 33%.

For the compound `CC1CC(C)(C)c2cccc(NC(=O)c3cn(C)nc3C(F)F)c21` (centres unmarked) [(I-1), 3-(difluoromethyl)-1-methyl-N-(1,1,3-trimethyl-2,3-dihydro-1H-inden-4-yl)-1H-pyrazole-4-carboxamide], the “Efficacy in % found” value (30 ppm a.i.) is on record as 78%.
